The supplement of paper PMC8024199
± gives the standard deviation of the averaged measurements.

Tests used:
Test in all cases: drug sensitivity score (DSS) (DSS score); higher = more sensitive (stronger growth inhibition); extreme values may be limits of the assay
[1] = tested on: Ba/F3 P210-BCR-ABL1 RUNX1-/- (mouse)
Method in brief: (§1)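 Each value is a drug sensitivity score derived from CellTiter-Glo luminescence scaled between vehicle and positive-control wells. Mouse Ba/F3 clones, CRISPR/Cas9-edited at a target exon or edited controls, were seeded at 10,000 cells per well in RPMI with 10% FBS and treated for 72 h at 37 °C and 5% CO2. Compounds from a 528-compound library were tested at five concentrations over a 10,000-fold range, and scores were averaged over two replicates.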

[2] = tested on: Ba/F3 P210-BCR-ABL1 RUNX1-/mut (mouse)
Method in brief: as §1

[3] = tested on: Ba/F3 P210-BCR-ABL1 RUNX1wt/wt control (mouse)
Method in brief: as §1

## CC[C@H](C)C(=O)O[C@H]1C[C@@H](C)C=C2C=C[C@H](C)[C@H](CC[C@@H]3C[C@@H](O)CC(=O)O3)[C@H]21 [Lovastatin]
[1]
  drug sensitivity score: 0
[2]
  drug sensitivity score: 0
[3]
  drug sensitivity score: 0

## CNC(=O)c1cccc2cc(Oc3ccnc4cc(OCC5(N)CC5)c(OC)cc34)ccc12 [Lucitanib]
[1]
  drug sensitivity score: 3.1 ± 1.1
[2]
  drug sensitivity score: 2.95 ± 1.1
[3]
  drug sensitivity score: 0.05 ± 0.071

## CCNC(=O)c1noc(-c2cc(C(C)C)c(O)cc2O)c1-c1ccc(CN2CCOCC2)cc1 [Luminespib]
[1]
  drug sensitivity score: 29.4 ± 1.7
[2]
  drug sensitivity score: 28.7 ± 3.2
[3]
  drug sensitivity score: 18.4 ± 0.57

## O=C(O)CC[C@H]1CC[C@@](c2cc(F)ccc2F)(S(=O)(=O)c2ccc(Cl)cc2)CC1 [MK-0752]
[1]
  drug sensitivity score: 0
[2]
  drug sensitivity score: 0
[3]
  drug sensitivity score: 0

## O=C(c1cccc(Cl)c1F)N1CCN(Cc2cccc(Nc3nccs3)n2)CC1 [MK-8745]
[1]
  drug sensitivity score: 4.7 ± 0.14
[2]
  drug sensitivity score: 3.5 ± 0.99
[3]
  drug sensitivity score: 0.85 ± 0.071

## Cn1cc(-c2cnn3c(N)c(Br)c([C@@H]4CCCNC4)nc23)cn1 [MK-8776]
[1]
  drug sensitivity score: 7.25 ± 0.64
[2]
  drug sensitivity score: 5.25 ± 3.3
[3]
  drug sensitivity score: 0

## Cc1cnc(-c2ccccc2C(C)C)nc1NCc1ccc(-n2ccnn2)cc1 [ML323]
[1]
  drug sensitivity score: 4.4 ± 1.6
[2]
  drug sensitivity score: 3.35 ± 2.9
[3]
  drug sensitivity score: 1.25 ± 0.071

## O=C(CCNC(=O)c1ccc(OC(F)(F)F)cc1)N[C@@H]1CCCc2ccccc21 [ML390]
[1]
  drug sensitivity score: 18.55 ± 0.071
[2]
  drug sensitivity score: 19.6 ± 0.92
[3]
  drug sensitivity score: 12.4 ± 0.49

## O=C(Nc1cccc(NC(=O)c2cccc(O)c2O)c1)c1cccc(O)c1O [MST-312]
[1]
  drug sensitivity score: 16.6 ± 0.21
[2]
  drug sensitivity score: 17.1 ± 2
[3]
  drug sensitivity score: 17.2 ± 0.42

## CNC(=O)[C@@H](NC(=O)[C@H](CC(C)C)[C@H](O)C(=O)NO)C(C)(C)C [Marimastat]
[1]
  drug sensitivity score: 0
[2]
  drug sensitivity score: 0.35 ± 0.49
[3]
  drug sensitivity score: 0

## CC(=O)O[C@]1(C(C)=O)CC[C@H]2[C@@H]3C=C(C)C4=CC(=O)CC[C@]4(C)[C@H]3CC[C@@]21C [Megestrol acetate]
[1]
  drug sensitivity score: 0.1 ± 0.14
[2]
  drug sensitivity score: 0.15 ± 0.21
[3]
  drug sensitivity score: 0

## CCN(CC)CCCC(C)Nc1c2ccc(Cl)cc2nc2ccc(OC)cc12 (stereo unspecified) [Mepacrine]
[1]
  drug sensitivity score: 18.6 ± 2.2
[2]
  drug sensitivity score: 19.7 ± 1.4
[3]
  drug sensitivity score: 5.4

## Cc1ccc(C(=O)Nc2ccc(Oc3cc4cnn(C)c4cc3-c3cn[nH]c3)c(F)c2)c(=O)n1-c1ccc(F)cc1 [Merestinib]
[1]
  drug sensitivity score: 0
[2]
  drug sensitivity score: 0
[3]
  drug sensitivity score: 0.05 ± 0.071

## CN(C)C(=N)NC(=N)N [Metformin]
[1]
  drug sensitivity score: 0
[2]
  drug sensitivity score: 0
[3]
  drug sensitivity score: 0

## CNC(=O)c1nn(C)c2c1C(C)(C)Cc1cnc(Nc3ccc(N4CCN(C)CC4)cc3)nc1-2 [Milciclib]
[1]
  drug sensitivity score: 20.9 ± 0.78
[2]
  drug sensitivity score: 14.7 ± 0.85
[3]
  drug sensitivity score: 10.8 ± 0.71

## CCCCCCCCCCCCCCCCOP(=O)([O-])OCC[N+](C)(C)C [Miltefosine]
[1]
  drug sensitivity score: 7.05 ± 0.21
[2]
  drug sensitivity score: 5.5 ± 1.3
[3]
  drug sensitivity score: 2 ± 1.4

## CCS(=O)(=O)Nc1ccc(Oc2ccc(F)cc2F)c(-c2cn(C)c(=O)c3[nH]ccc23)c1 [Mivebresib]
[1]
  drug sensitivity score: 41.35 ± 0.21
[2]
  drug sensitivity score: 41 ± 2
[3]
  drug sensitivity score: 34 ± 1.3

## Nc1ccccc1NC(=O)c1ccc(CNc2nccc(-c3cccnc3)n2)cc1 [Mocetinostat]
[1]
  drug sensitivity score: 17.5 ± 1.6
[2]
  drug sensitivity score: 17.4 ± 2.3
[3]
  drug sensitivity score: 17.1 ± 0.14

## CCNC(=O)C[C@@H]1N=C(c2ccc(Cl)cc2)c2cc(OC)ccc2-n2c(C)nnc21 [Molibresib]
[1]
  drug sensitivity score: 18.4 ± 1.6
[2]
  drug sensitivity score: 18.1 ± 2
[3]
  drug sensitivity score: 12.1 ± 0.14

## N#CCNC(=O)c1ccc(-c2ccnc(Nc3ccc(N4CCOCC4)cc3)n2)cc1 [Momelotinib]
[1]
  drug sensitivity score: 8.45 ± 1.1
[2]
  drug sensitivity score: 5.9 ± 1.1
[3]
  drug sensitivity score: 6.15 ± 0.64

## CCCN(CCC)C(=O)C1=Cc2ccc(-c3ccc(C(=O)N4CCCC4)cc3)cc2N=C(N)C1 [Motolimod]
[1]
  drug sensitivity score: 1.45 ± 0.35
[2]
  drug sensitivity score: 1 ± 1.1
[3]
  drug sensitivity score: 0

## FC(F)(F)c1ccc(/C=C/c2nc(COc3ccc(CCCCn4ccnn4)cc3)co2)cc1 [Mubritinib]
[1]
  drug sensitivity score: 5.1 ± 0.28
[2]
  drug sensitivity score: 5.55 ± 0.49
[3]
  drug sensitivity score: 5.95 ± 0.21

## Cc1cc(OCc2nnc(SC3CCCC3)n2-c2cccnc2)ccc1-c1ccc(S(C)(=O)=O)cc1 [NMS-873]
[1]
  drug sensitivity score: 16.3 ± 1.6
[2]
  drug sensitivity score: 14.7 ± 1.1
[3]
  drug sensitivity score: 22.2 ± 0.71

## COc1ccc(-c2ccc3ncc4c(c3c2)n(-c2ccc(N3CCNCC3)c(C(F)(F)F)c2)c(=O)n4C)cn1 [NVP-BGT226]
[1]
  drug sensitivity score: 22.4 ± 2.3
[2]
  drug sensitivity score: 23.1 ± 1.4
[3]
  drug sensitivity score: 14.5

## Cc1ccc(C(=O)Nc2cccc(C(F)(F)F)c2)cc1Nc1nc(-c2cccnc2)nc2c1cnn2C [NVP-BHG712]
[1]
  drug sensitivity score: 7.45 ± 0.35
[2]
  drug sensitivity score: 5.15 ± 0.071
[3]
  drug sensitivity score: 5.4 ± 0.42

## COc1cc2c(cc1OC(C)C)[C@H](c1ccc(Cl)cc1)N(c1ccc(N(C)C[C@H]3CC[C@H](N4CCN(C)C(=O)C4)CC3)cc1)C(=O)C2 [NVP-CGM097]
[1]
  drug sensitivity score: 8.7 ± 0.71
[2]
  drug sensitivity score: 8.8 ± 3
[3]
  drug sensitivity score: 6.3 ± 0.28

## CN[C@@H](C)C(=O)N[C@H](C(=O)N1CCC[C@H]1c1nc(C(=O)c2ccc(F)cc2)cs1)C1CCCCC1 [NVP-LCL161]
[1]
  drug sensitivity score: 26.4 ± 4.4
[2]
  drug sensitivity score: 7.6 ± 8.5
[3]
  drug sensitivity score: 23.6 ± 2.8

## Cn1c(Nc2ccc(C(F)(F)F)cc2)nc2cc(Oc3ccnc(-c4ncc(C(F)(F)F)[nH]4)c3)ccc21 [NVP-RAF265]
[1]
  drug sensitivity score: 2.5 ± 1.8
[2]
  drug sensitivity score: 0
[3]
  drug sensitivity score: 0

## CC(=O)c1cc2c(o1)C(=O)c1ccccc1C2=O [Napabucasin]
[1]
  drug sensitivity score: 17.4 ± 0.14
[2]
  drug sensitivity score: 19.4 ± 3
[3]
  drug sensitivity score: 11.1 ± 2.5

## CN1C(=O)N[C@H](Cc2c[nH]c3c(Cl)cccc23)C1=O [Necrostatin 2]
[1]
  drug sensitivity score: 0
[2]
  drug sensitivity score: 0
[3]
  drug sensitivity score: 0

## O=c1ncn2nc(Sc3ccc(F)cc3F)ccc2c1-c1c(Cl)cccc1Cl [Neflamapimod]
[1]
  drug sensitivity score: 1.9 ± 0.71
[2]
  drug sensitivity score: 0.85 ± 1.2
[3]
  drug sensitivity score: 0

## CCOc1cc2ncc(C#N)c(Nc3ccc(OCc4ccccn4)c(Cl)c3)c2cc1NC(=O)/C=C/CN(C)C [Neratinib]
[1]
  drug sensitivity score: 2.35 ± 1.5
[2]
  drug sensitivity score: 1.5 ± 2.1
[3]
  drug sensitivity score: 0

## COC(=O)c1ccc2c(c1)NC(=O)/C2=C(\Nc1ccc(N(C)C(=O)CN2CCN(C)CC2)cc1)c1ccccc1 [Nintedanib]
[1]
  drug sensitivity score: 17.4
[2]
  drug sensitivity score: 8.15 ± 4.6
[3]
  drug sensitivity score: 5.4 ± 0.14

## NC(=O)c1cccc2cn(-c3ccc([C@@H]4CCCNC4)cc3)nc12 [Niraparib]
[1]
  drug sensitivity score: 7.8 ± 0.99
[2]
  drug sensitivity score: 8.15 ± 3.3
[3]
  drug sensitivity score: 2.7 ± 0.71

## CC(O)c1cc(C(=O)N[C@@H](C)Cn2ccc(-c3ccc(C#N)c(Cl)c3)n2)n[nH]1 (stereo partly specified) [ODM-201]
[1]
  drug sensitivity score: 2.55 ± 0.071
[2]
  drug sensitivity score: 2.05 ± 1.9
[3]
  drug sensitivity score: 0

## CC(=O)c1cnc2ccc(-c3cc(Cl)c(O)c(Cl)c3)nc2c1N[C@H]1CC[C@H](CN(C)C)CC1 [OTS167]
[1]
  drug sensitivity score: 22.1 ± 0.78
[2]
  drug sensitivity score: 20.4 ± 0.92
[3]
  drug sensitivity score: 17 ± 0.42

## C=CC(=O)Nc1cccc(Oc2nc(Nc3ccc(N4CCN(C)CC4)cc3)nc3ccsc23)c1 [Olmutinib]
[1]
  drug sensitivity score: 0.65 ± 0.92
[2]
  drug sensitivity score: 0.45 ± 0.64
[3]
  drug sensitivity score: 0

## COC(=O)C[C@](O)(CCCC(C)(C)O)C(=O)O[C@@H]1C(OC)=C[C@]23CCCN2CCc2cc4c(cc2[C@H]13)OCO4 [Omacetaxine]
[1]
  drug sensitivity score: 33.8 ± 2.5
[2]
  drug sensitivity score: 35.4 ± 3.7
[3]
  drug sensitivity score: 28.8 ± 0.92

## CC1(C)CC[C@]2(NC(=O)C(C)(F)F)CC[C@]3(C)[C@H](C(=O)C=C4[C@@]5(C)C=C(C#N)C(=O)C(C)(C)[C@@H]5CC[C@]43C)[C@@H]2C1 [Omaveloxolone]
[1]
  drug sensitivity score: 22.9 ± 0.28
[2]
  drug sensitivity score: 22.4 ± 0.78
[3]
  drug sensitivity score: 17.2 ± 0.14

## COc1ncc(-c2ccc3nccc(-c4ccnnc4)c3c2)cc1NS(=O)(=O)c1ccc(F)cc1F [Omipalisib]
[1]
  drug sensitivity score: 12.3 ± 1.4
[2]
  drug sensitivity score: 11.9 ± 3.4
[3]
  drug sensitivity score: 7.8 ± 0.28

## CC(C)c1cc(C(=O)N2Cc3ccc(CN4CCN(C)CC4)cc3C2)c(O)cc1O [Onalespib]
[1]
  drug sensitivity score: 19.1 ± 2.9
[2]
  drug sensitivity score: 17.8 ± 1.1
[3]
  drug sensitivity score: 14.6 ± 0.21

## COC[C@H](NC(=O)c1cnc(C)s1)C(=O)N[C@@H](COC)C(=O)N[C@@H](Cc1ccccc1)C(=O)[C@@]1(C)CO1 [Oprozomib]
[1]
  drug sensitivity score: 22.2 ± 1.3
[2]
  drug sensitivity score: 20.5 ± 1.6
[3]
  drug sensitivity score: 19.2 ± 0.35

## CNC(=O)c1ccc2cc([C@@]3(O)CCn4cncc43)ccc2c1 [Orteronel]
[1]
  drug sensitivity score: 0
[2]
  drug sensitivity score: 0
[3]
  drug sensitivity score: 0

## C=CC(=O)Nc1cc(Nc2nccc(-c3cn(C)c4ccccc34)n2)c(OC)cc1N(C)CCN(C)C [Osimertinib]
[1]
  drug sensitivity score: 5.6 ± 0.28
[2]
  drug sensitivity score: 5.6 ± 0.57
[3]
  drug sensitivity score: 1.25 ± 1.2

## O=C(O)C(=O)O.[NH-][C@@H]1CCCC[C@H]1[NH-].[Pt+2] [Oxaliplatin]
[1]
  drug sensitivity score: 29 ± 0.14
[2]
  drug sensitivity score: 28.6 ± 0.71
[3]
  drug sensitivity score: 25.85 ± 0.21

## C=CCc1cccc(/C=N/NC(=O)CN2CCN(Cc3ccccc3)CC2)c1O [PAC-1]
[1]
  drug sensitivity score: 4.95 ± 0.21
[2]
  drug sensitivity score: 4.65 ± 0.78
[3]
  drug sensitivity score: 0.15 ± 0.21

## O=C(Nc1cccnc1)N1CCC(Cc2cccc(Oc3ccc(C(F)(F)F)cn3)c2)CC1 [PF-3845]
[1]
  drug sensitivity score: 2.15 ± 0.64
[2]
  drug sensitivity score: 1.9 ± 2.7
[3]
  drug sensitivity score: 2.1 ± 0.14
